Consider two compounds from article PMC8657848, “Developmental Toxicity and Biotransformation of Two Anti-Epileptics in Zebrafish Embryos and Early Larvae” (International Journal of Molecular Sciences, 2021).

For data set [1], the system named is zebrafish embryos and larvae. The experiment in a line: Morphological evaluation of zebrafish embryos/larvae exposed from 5¼ to 120 hpf. The following applies: in vivo. The protocol: Each experiment was performed in two biological replicates (n = 2, 20 embryos/replicate) and consisted of a medium control group (EMS), solvent control group(s) (EMS + 0.5% DMSO and/or EMS + 1% DMSO) and four dose groups. […] Embryos were reared until they reached the desired developmental stage, under the same environmental conditions as the adults (28.5 °C ± 0.3 °C with a 14/10 h light/dark cycle) in the incubator (TIN-IN35, Phoenix instrument, Garbsen, Germany).
For the metabolites, E-CBZ (≥98% purity, CAS number: 36507-30-9, Supelco, Merck, Darmstadt, Germany) and HPPH (98% purity, CAS number: 2784-27-2, Sigma-Aldrich®, Merck, Darmstadt, Germany), we only selected one high concentration, 250 µM (see Supplementary Table S1). […] A higher percentage of DMSO was used for E-CBZ for the optimum dissolution of E-CBZ in EMS. Immediately after the selection (see Section 4.1), twenty embryos were randomly distributed in each control and test group. Embryos were exposed at the latest at 5 hpf in a final volume of 300 µL medium at a density of a fish per well.
For each biological replicate (n = 2), zebrafish embryos were morphologically investigated at 5¼, 10, 24, 48, 72, 96 and 120 hpf (Figure 9) using an Olympus CKX41 microscope with an Olympus U-TV0.5XC-3 lighting and an Olympys 4x/0.16 Uplan APO microscope objective (Shinjuku, Tokyo, Japon) to follow the developmental stages described by Kimmel et al.. The 5¼- and 10-hpf time points served as control steps to identify unfertilized or coagulated eggs that were included unwittingly to the experiment and referenced as coagulated in the 24-hpf morphological sheet (see Supplementary Figure S3). A series of morphological parameters were explored, adapted from Nagel et al., depending on the different time points of interest and described previously by our group (see Supplementary Figure S3). All parameters were scored 0 if normal and 1 if malformed. This binary scale was used to facilitate the scoring and no gradation of the severity of the endpoints was evaluated in this study.

The nature of data set [2]: Quantification of compound in stock and culture medium relative to nominal concentration (LC-MS). The following applies: for Percentage of quantified compound concentration relatively to the nominal concentration: CBZ–E-CBZ. The class given is physicochemical. The procedure: The control and test mediums were also kept in the same incubator until the last time point of the experiment. The embryo media were renewed every 48 h, to avoid medium acidification and oxygen deprivation. At each medium change and at the last time point of the experiment (Figure 9), the media exposed to the embryos were pooled and kept at −80 °C for further use (n = 3). Moreover, samples from the stock solutions kept at 28.5 °C ± 0.3 °C were also taken at 0 and 120 hpf (n = 3), whereas samples were only taken at 96 hpf for the metabolites medium (E-CBZ and HPPH).

In another data set the test system is zebrafish embryos/larvae. Put plainly: Quantification of metabolites E-CBZ and HPPH in pooled culture medium exposed to zebrafish embryos/larvae. The class given is in vivo, Danio rerio. The following applies: 250 µM CBZ. The procedure:
The control and test mediums were also kept in the same incubator until the last time point of the experiment. The embryo media were renewed every 48 h, to avoid medium acidification and oxygen deprivation. At each medium change and at the last time point of the experiment (Figure 9), the media exposed to the embryos were pooled and kept at −80 °C for further use (n = 3).

A short description of data set [3]: Microsomal incubation with CBZ and PHE, rabbit liver microsomes. The class given is in vitro ADME. The following applies: rabbit adult liver microsomes; data not shown. The protocol: Moreover, positive and negative controls were included: pooled human liver microsomes (Gibco™, HMMCPL–PL050B, Thermo Fisher Scientific) and Insect Cell Control Supersomes™ (lot number: PL050 C-B, 456201, Corning Incorporated, Corning, NY, USA), respectively. Based on Oziolor et al., microsomal reactions were initiated after adding the substrate solution at a concentration of 100 µM (see Supplementary Table S1) in a mixture of 100 mM K3PO4 buffer (Corning® Gentest™, NY, USA) of pH 7.4, 5% and 1% of NADPH regenerating system reagents A and B, respectively (Corning, Woburn, MA, USA) and 200 µg/mL of microsomal protein, for a total volume of 500 µL. The reactions were performed at 28.5 ± 0.3 °C until the time point of interest. […]
For the quantification of the metabolites E-CBZ and HPPH, the samples processed were the microsomal incubation reactions (see Section 4.3.2), the zebrafish culture and stock medium (4.2.1) and the zebrafish embryos/larvae extracts (see Section 4.2.3). […] To quantify the concentrations of E-CBZ and HPPH in these samples, standard curves (in duplicate) of 10 concentrations for E-CBZ (0.5–400 ng/mL; see Supplementary Table S1) and HPPH (2–1600 ng/mL; see Supplementary Table S1) were prepared, as were quality controls. […]
A general note: Liver microsomes are vesicles of endoplasmic reticulum, rich in cytochrome P450 enzymes.

The nature of data set [4]: Microsomal incubation with CBZ and PHE, adult zebrafish liver microsomes. The class given is in vitro ADME, Danio rerio. The following applies: data not shown.
Details of data set [5]: method as in PMID 20832863. The following applies: after 70.5 h of exposure (time point 72 hpf); cited from earlier work.
A short description of data set [6]: Microsomal incubation with CBZ and PHE, supersomes (negative control). The class given is in vitro ADME. The following applies: data not shown. The procedure:
Moreover, positive and negative controls were included: pooled human liver microsomes (Gibco™, HMMCPL–PL050B, Thermo Fisher Scientific) and Insect Cell Control Supersomes™ (lot number: PL050 C-B, 456201, Corning Incorporated, Corning, NY, USA), respectively. Based on Oziolor et al., microsomal reactions were initiated after adding the substrate solution at a concentration of 100 µM (see Supplementary Table S1) in a mixture of 100 mM K3PO4 buffer (Corning® Gentest™, NY, USA) of pH 7.4, 5% and 1% of NADPH regenerating system reagents A and B, respectively (Corning, Woburn, MA, USA) and 200 µg/mL of microsomal protein, for a total volume of 500 µL. The reactions were performed at 28.5 ± 0.3 °C until the time point of interest. […] The reactions were stopped at two time points (5 and 240 min) by sampling 40 µL, in duplicate, of the main microsomal reaction and mixed with 120 µL cold (4 °C) acetonitrile (ACN) (Merck, Darmstadt, Germany) already containing the internal standard (IS), LAMO. The samples were then centrifuged for 10 min at 10,000× g to precipitate the proteins, which were denatured in cold ACN.

Setting [7] is: zebrafish (Danio rerio), 120 hpf, 85 µM.
[8] abbreviates: zebrafish (Danio rerio), 120 hpf, 250 µM.
The mark [9] stands for this setting: zebrafish (Danio rerio), 120 hpf, 31.25 µM.

The structures appear in SMILES notation.

Take `NC(=O)N1c2ccccc2C=Cc2ccccc21` [CBZ, carbamazepine]: in data set [1], the “Teratogenicity in zebrafish (conclusion from morphological and analytical assessment)” value is listed as “teratogens”. Besides, in data set [1] (setting [7]), the Coagulation was 2/20. Besides, the “Deviation Tail Curve” value in data set [1] (setting [7]) was 1/18; in data set [1] (setting [8]) it was 2/20. The “Malformation Head Deviation Eye” value in data set [1] (setting [7]) is recorded as 1/18. Besides, the entries for the “Malformation Head Deviation Mouth” value in data set [1] (setting [7]) and in data set [1] (setting [8]) were 2/18 and 3/20, respectively. In addition, the “Malformation Head Deviation Shape Head” value in data set [1] (setting [7]) was 3/18. In data set [1] (setting [8]), the “Oedema Yolk” value was 3/20. Besides, the “Percentage of quantified compound concentration relatively to the nominal concentration” value stood at 95.4 ± 16.2% in data set [2] (Culture medium exposed to embryos/larvae, nominal 31.25 µM, 48 hpf); 101.2 ± 21.7% in data set [2] (Culture medium, nominal 31.25 µM, 96 hpf); 109.6 ± 5.4% in data set [2] (Culture medium, nominal 31.25 µM, 120 hpf); 110.0 ± 4.8% in data set [2] (Culture medium, nominal 85 µM, 48 hpf); 116.8 ± 4.7% in data set [2] (Culture medium, nominal 85 µM, 96 hpf); 113.9 ± 4.5% in data set [2] (Culture medium, nominal 85 µM, 120 hpf). Further, the “Percentage of quantified compound concentration relatively to the nominal concentration” value in data set [2] (Culture medium, nominal 250 µM, 48 hpf) is 113.4 ± 14.1%; in data set [2] (Culture medium, nominal 250 µM, 96 hpf), 114.2 ± 2.6%; in data set [2] (Culture medium, nominal 250 µM, 120 hpf), 111.5 ± 2.6%; in data set [2] (Stock, nominal 31.25 µM, 0 hpf, average of three replicates), 95.6 ± 2.0%; in data set [2] (Stock, nominal 31.25 µM, 120 hpf) it was 101.6 ± 7.7%; in data set [2] (Stock, nominal 85 µM, 0 hpf), 81.7 ± 18.7%. Also, the “Percentage of quantified compound concentration relatively to the nominal concentration” value in data set [2] (Stock, nominal 85 µM, 120 hpf) was found to be 90.4 ± 6.6%; in data set [2] (Stock, nominal 250 µM, 0 hpf), 92.1 ± 5.3%; in data set [2] (Stock, nominal 250 µM, 120 hpf) it was 98.4 ± 4.6%. Besides, the “Increase of E-CBZ in culture medium between 96 and 120 hpf” value with zebrafish embryos/larvae is recorded as “six-fold”. The figures for the “Decrease of parent compound after 240 min (pilot investigation)” value (“Decrease of parent compound” for short) in data set [3] and in data set [4] were “slight decrease” and “no changes”, respectively. Moreover, the “Average quantified concentration higher than the nominal concentration” value in data set [5] was 22.3%.
For the compound `O=C1NC(=O)C(c2ccccc2)(c2ccccc2)N1` [PHE, phenytoin], the “Teratogenicity in zebrafish (conclusion from morphological and analytical assessment)” value in data set [1] is reported as “teratogens”. In data set [1] (setting [9]), the “Deviation Tail Curve” value is on record as 1/20 and the “Malformation Head Deviation Eye” value is 2/20. In addition, in data set [1] (setting [7]), the “Deviation Pigmentation” value is reported as 2/20, the “Deviation Tail Elbow” value is recorded as 1/20 and the “Deviation Tail Tissue Deviation” value is on record as 2/20. Further, in data set [1] (setting [8]), the “Deviation Tail Elbow” value is listed as 2/20, the “Deviation Tail Tissue Deviation” value is on record as 1/20, the “No Hatching” value was 1/20 and the “Oedema Head” value is 1/20. In addition, in data set [1] (setting [8]), the “Oedema Pericardium” value is listed as 1/20 and the “Oedema Yolk” value is 1/20. Besides, the “Quantified concentration in culture medium lower than the nominal concentration” value in data set [2] (31.25 µM, stable over time) turned out to be 20%. In addition, the “Quantified concentration lower than the nominal concentration” value in data set [2] (85 µM, culture medium at 96 and 120 hpf and stock medium at 120 hpf) was “around 35%”. Further, the “Quantified concentration lower than the expected concentration” value in data set [2] (85 µM, stock medium at 0 hpf and culture medium at 48 hpf) was “around 20%”. Besides, in data set [2] (250 µM, stock and culture medium, all time points), the “Quantified concentration as percentage of the nominal concentration” value was no more than 45%. Further, in data set [2] (visually observed in the stock medium for 85 and 250 µM), the “Dissolution / precipitation in EMS” value was “did not dissolve properly in the EMS and/or precipitated in EMS”. Moreover, the “Decrease of parent compound” value in data set [3] is recorded as “very slight decrease”. In data set [4], the “Decrease of parent compound” value is reported as “No decrease”. In addition, the “Decrease of parent compound” value in data set [6] is reported as “No decrease”.
